Assay results: PMC5224920, “Assessing the mechanism and therapeutic potential of modulators of the human Mediator complex-associated protein kinases” (eLife, 2016)

Test system: 12 single or co-culture in vitro tissue models of primary cells
Test: Culture/co-culture cell model panel, extracellular biomarkers (DiscoveRx); on CCL2/MCP-1: reference of the scale not given here; on CD141/Thrombomodulin: reference of the scale not given here; on CD142/Tissue Factor: reference of the scale not given here; on CXCL8/IL-8: reference of the scale not given here; on CXCL9/MIG: reference of the scale not given here; on M-CSF: reference of the scale not given here; on Proliferation: reference of the scale not given here; on SRB: reference of the scale not given here
Format: cell-based, human

Q: Which results are given for `Cc1n[nH]c2ncc(C(=O)N3CCC[C@H]3c3ccc(Cl)cc3)cc12` [CMPD4]?
A: CCL2/MCP-1 (3C, 1.00E4 nM): -0.095; CD54/ICAM-1 (3C, 1.00E4 nM): -0.015; CD62E/E-Selectin (3C, 1.00E4 nM): 0.054; CD87/uPAR (3C, 1.00E4 nM): -0.432; CD106/VCAM-1 (3C, 1.00E4 nM): 0.073; CD141/Thrombomodulin (3C, 1.00E4 nM): 0.088; CD142/Tissue Factor (3C, 1.00E4 nM): 0.112; CXCL8/IL-8 (3C, 1.00E4 nM): -0.381; CXCL9/MIG (3C, 1.00E4 nM): -0.030; HLA-DR (3C, 1.00E4 nM): -0.292; Proliferation (3C, 1.00E4 nM): -0.144; SRB (3C, 1.00E4 nM): -0.077; CCL2/MCP-1 (3C, 1.11E3 nM): -0.139; CD54/ICAM-1 (3C, 1.11E3 nM): -0.012; CD62E/E-Selectin (3C, 1.11E3 nM): 0.043; CD87/uPAR (3C, 1.11E3 nM): -0.475; CD106/VCAM-1 (3C, 1.11E3 nM): 0.074; CD141/Thrombomodulin (3C, 1.11E3 nM): 0.143; CD142/Tissue Factor (3C, 1.11E3 nM): 0.111; CXCL8/IL-8 (3C, 1.11E3 nM): -0.399; CXCL9/MIG (3C, 1.11E3 nM): -0.035; HLA-DR (3C, 1.11E3 nM): -0.213; Proliferation (3C, 1.11E3 nM): -0.067; SRB (3C, 1.11E3 nM): -0.088; CCL2/MCP-1 (3C, 1.23E2 nM): -0.155; CD54/ICAM-1 (3C, 1.23E2 nM): -0.013; CD62E/E-Selectin (3C, 1.23E2 nM): 0.033; CD87/uPAR (3C, 1.23E2 nM): -0.463; CD106/VCAM-1 (3C, 1.23E2 nM): 0.092; CD141/Thrombomodulin (3C, 1.23E2 nM): 0.134; CD142/Tissue Factor (3C, 1.23E2 nM): 0.145; CXCL8/IL-8 (3C, 1.23E2 nM): -0.289; CXCL9/MIG (3C, 1.23E2 nM): -0.028; HLA-DR (3C, 1.23E2 nM): -0.216; Proliferation (3C, 1.23E2 nM): -0.036; SRB (3C, 1.23E2 nM): -0.101; CCL2/MCP-1 (3C, 1.37E1 nM): -0.054; CD54/ICAM-1 (3C, 1.37E1 nM): -0.029; CD62E/E-Selectin (3C, 1.37E1 nM): 0.033; CD87/uPAR (3C, 1.37E1 nM): -0.383; CD106/VCAM-1 (3C, 1.37E1 nM): 0.060; CD141/Thrombomodulin (3C, 1.37E1 nM): 0.107; CD142/Tissue Factor (3C, 1.37E1 nM): 0.109; CXCL8/IL-8 (3C, 1.37E1 nM): -0.180; CXCL9/MIG (3C, 1.37E1 nM): -0.010; HLA-DR (3C, 1.37E1 nM): -0.145; Proliferation (3C, 1.37E1 nM): -0.003; SRB (3C, 1.37E1 nM): -0.076; CCL2/MCP-1 (3C, 3.33E3 nM): -0.119; CD54/ICAM-1 (3C, 3.33E3 nM): -0.027; CD62E/E-Selectin (3C, 3.33E3 nM): 0.034; CD87/uPAR (3C, 3.33E3 nM): -0.471; CD106/VCAM-1 (3C, 3.33E3 nM): 0.069; CD141/Thrombomodulin (3C, 3.33E3 nM): 0.129; CD142/Tissue Factor (3C, 3.33E3 nM): 0.128; CXCL8/IL-8 (3C, 3.33E3 nM): -0.412; CXCL9/MIG (3C, 3.33E3 nM): -0.032; HLA-DR (3C, 3.33E3 nM): -0.242; Proliferation (3C, 3.33E3 nM): -0.090; SRB (3C, 3.33E3 nM): -0.073; CCL2/MCP-1 (3C, 3.70E2 nM): -0.153; CD54/ICAM-1 (3C, 3.70E2 nM): -0.078; CD62E/E-Selectin (3C, 3.70E2 nM): 0.052; CD87/uPAR (3C, 3.70E2 nM): -0.455; CD106/VCAM-1 (3C, 3.70E2 nM): 0.094; CD141/Thrombomodulin (3C, 3.70E2 nM): 0.139; CD142/Tissue Factor (3C, 3.70E2 nM): 0.142; CXCL8/IL-8 (3C, 3.70E2 nM): -0.363; CXCL9/MIG (3C, 3.70E2 nM): -0.028; HLA-DR (3C, 3.70E2 nM): -0.210; Proliferation (3C, 3.70E2 nM): -0.026; SRB (3C, 3.70E2 nM): -0.097; CCL2/MCP-1 (3C, 4.12E1 nM): -0.076; CD54/ICAM-1 (3C, 4.12E1 nM): -0.033; CD62E/E-Selectin (3C, 4.12E1 nM): 0.032; CD87/uPAR (3C, 4.12E1 nM): -0.415; CD106/VCAM-1 (3C, 4.12E1 nM): 0.093; CD141/Thrombomodulin (3C, 4.12E1 nM): 0.127; CD142/Tissue Factor (3C, 4.12E1 nM): 0.136; CXCL8/IL-8 (3C, 4.12E1 nM): -0.222; CXCL9/MIG (3C, 4.12E1 nM): -0.007; HLA-DR (3C, 4.12E1 nM): -0.208; Proliferation (3C, 4.12E1 nM): -0.018; SRB (3C, 4.12E1 nM): -0.080; CCL2/MCP-1 (3C, 4.57E0 nM): 0.026; CD54/ICAM-1 (3C, 4.57E0 nM): -0.005; CD62E/E-Selectin (3C, 4.57E0 nM): 0.022; CD87/uPAR (3C, 4.57E0 nM): -0.265; CD106/VCAM-1 (3C, 4.57E0 nM): 0.039; CD141/Thrombomodulin (3C, 4.57E0 nM): 0.096; CD142/Tissue Factor (3C, 4.57E0 nM): 0.092; CXCL8/IL-8 (3C, 4.57E0 nM): -0.109; CXCL9/MIG (3C, 4.57E0 nM): -0.014; HLA-DR (3C, 4.57E0 nM): -0.077; Proliferation (3C, 4.57E0 nM): -0.017; SRB (3C, 4.57E0 nM): -0.052; CCL2/MCP-1 (/HDF3CT, 1.00E4 nM): -0.123; CD54/ICAM-1 (/HDF3CT, 1.00E4 nM): -0.074; CD106/VCAM-1 (/HDF3CT, 1.00E4 nM): 0.00544; CXCL8/IL-8 (/HDF3CT, 1.00E4 nM): -0.159; CXCL9/MIG (/HDF3CT, 1.00E4 nM): -0.043; CXCL10/IP-10 (/HDF3CT, 1.00E4 nM): -0.008; Collagen I (/HDF3CT, 1.00E4 nM): -0.050; M-CSF (/HDF3CT, 1.00E4 nM): -0.035; MMP-1 (/HDF3CT, 1.00E4 nM): -0.057; PAI-I (/HDF3CT, 1.00E4 nM): -0.206; SRB (/HDF3CT, 1.00E4 nM): -0.005; TIMP-2 (/HDF3CT, 1.00E4 nM): 0.00643; CCL2/MCP-1 (/HDF3CT, 1.11E3 nM): -0.116; CD54/ICAM-1 (/HDF3CT, 1.11E3 nM): -0.059; CD106/VCAM-1 (/HDF3CT, 1.11E3 nM): 0.008; CXCL8/IL-8 (/HDF3CT, 1.11E3 nM): -0.199; CXCL9/MIG (/HDF3CT, 1.11E3 nM): -0.051; CXCL10/IP-10 (/HDF3CT, 1.11E3 nM): 0.00172; Collagen I (/HDF3CT, 1.11E3 nM): -0.048; M-CSF (/HDF3CT, 1.11E3 nM): -0.052; MMP-1 (/HDF3CT, 1.11E3 nM): -0.043; PAI-I (/HDF3CT, 1.11E3 nM): -0.122; SRB (/HDF3CT, 1.11E3 nM): 0.010; TIMP-2 (/HDF3CT, 1.11E3 nM): 0.028; CCL2/MCP-1 (/HDF3CT, 1.23E2 nM): -0.004; CD54/ICAM-1 (/HDF3CT, 1.23E2 nM): -0.048; CD106/VCAM-1 (/HDF3CT, 1.23E2 nM): 0.017; CXCL8/IL-8 (/HDF3CT, 1.23E2 nM): -0.167; CXCL9/MIG (/HDF3CT, 1.23E2 nM): -0.040; CXCL10/IP-10 (/HDF3CT, 1.23E2 nM): 0.011; Collagen I (/HDF3CT, 1.23E2 nM): -0.027; M-CSF (/HDF3CT, 1.23E2 nM): -0.051; MMP-1 (/HDF3CT, 1.23E2 nM): 0.00166; PAI-I (/HDF3CT, 1.23E2 nM): -0.00646; SRB (/HDF3CT, 1.23E2 nM): 0.00373; TIMP-2 (/HDF3CT, 1.23E2 nM): 0.061; CCL2/MCP-1 (/HDF3CT, 1.37E1 nM): 0.037; CD54/ICAM-1 (/HDF3CT, 1.37E1 nM): -0.040; CD106/VCAM-1 (/HDF3CT, 1.37E1 nM): 0.019; CXCL8/IL-8 (/HDF3CT, 1.37E1 nM): -0.056; CXCL9/MIG (/HDF3CT, 1.37E1 nM): 0.00152; CXCL10/IP-10 (/HDF3CT, 1.37E1 nM): 0.022; Collagen I (/HDF3CT, 1.37E1 nM): -0.019; M-CSF (/HDF3CT, 1.37E1 nM): -0.071; MMP-1 (/HDF3CT, 1.37E1 nM): 0.083; PAI-I (/HDF3CT, 1.37E1 nM): 0.023; SRB (/HDF3CT, 1.37E1 nM): 0.004; TIMP-2 (/HDF3CT, 1.37E1 nM): 0.069; CCL2/MCP-1 (/HDF3CT, 3.33E3 nM): -0.101; CD54/ICAM-1 (/HDF3CT, 3.33E3 nM): -0.068; CD106/VCAM-1 (/HDF3CT, 3.33E3 nM): 0.005; CXCL8/IL-8 (/HDF3CT, 3.33E3 nM): -0.189; CXCL9/MIG (/HDF3CT, 3.33E3 nM): -0.053; CXCL10/IP-10 (/HDF3CT, 3.33E3 nM): 0.002; Collagen I (/HDF3CT, 3.33E3 nM): -0.071; M-CSF (/HDF3CT, 3.33E3 nM): -0.054; MMP-1 (/HDF3CT, 3.33E3 nM): -0.042; PAI-I (/HDF3CT, 3.33E3 nM): -0.184; SRB (/HDF3CT, 3.33E3 nM): 0.008; TIMP-2 (/HDF3CT, 3.33E3 nM): 0.012; CCL2/MCP-1 (/HDF3CT, 3.70E2 nM): -0.041; CD54/ICAM-1 (/HDF3CT, 3.70E2 nM): -0.059; CD106/VCAM-1 (/HDF3CT, 3.70E2 nM): 0.017; CXCL8/IL-8 (/HDF3CT, 3.70E2 nM): -0.180; CXCL9/MIG (/HDF3CT, 3.70E2 nM): -0.046; CXCL10/IP-10 (/HDF3CT, 3.70E2 nM): 0.00747; Collagen I (/HDF3CT, 3.70E2 nM): -0.040
